According to patent EP1705169A2, “Triphenylalkene derivatives and their use as selective estrogen receptor modulators” (priority 1999, dated 2001):
Like-named read-outs stand apart in the source and are kept apart here.

Tests used:
MCF-7 cells = experiment: cells; conditions: for inhibition at 1 µM / cytotoxicity at 10 µM / Emax: Homo sapiens, MCF7, 96 h; for inhibition at 1 µM: read-out: Antagonism at 1 µM (% of full antagonism); for cytotoxicity at 10 µM: toxicity at 10 µmol/l, 100 = all cells dead; for Emax: read-out: Maximal Agonism (% of E2)
Method: For experiments involving hormone or anti-hormone treatment, the cells in exponential growth phase were precultivated in the absence of estradiol for one day. […] After the incubation period the medium was removed. The exposure to study drugs was started immediately by adding fresh medium with 5 % stripped serum. Half of the cells were grown with estradiol, half without estradiol. Study compounds (dissolved in ethanol in 0.01 M concentration and diluted with the growth medium as appropriate) were added. The final concentrations of the compounds were 1,10, and 100 nM, and 1 and 10 µM. The cells were incubated for four days.
This method allows evaluation of estrogenicity based on the ability of the compounds to stimulate the growth of the estrogen-dependent cells in the absence of estradiol. Estrogenicity was estimated by comparing the maximal growth stimulus (at any concentration) of study compound as per cent from growth stimulus by estradiol (100 % stimulus). […] At high concentrations molecules may also show toxicity. Toxicity was estimated as the fraction of dead cells (i.e. 100 % means that all cells have died during the exposure).

[1] = tested on: ovariectomized (OVX) rats; experiment: Serum cholesterol level in ovariectomized (OVX) rats after 4 weeks dosing; format: in vivo, rat; conditions: for Effect on cholesterol (in words): summary statement referring to Table 4; for Cholesterol level (mmol/1) in serum: OVX rat, n=8 (Sham 3.8 ± 0.4; OVX 4.6 ± 0.7)
Excerpt: (§1) Compounds were given p.o. to female rats for 4 or 5 weeks daily. At the end a blood sample was taken. Serum was separated by centrifugation and frozen until analyzed for total amount of cholesterol. Bone samples were taken from vertebra and tibia. Physical strength of the bones was studied as described by Peng et al, 1994. The assessments of the bone included: • Ash weight of tibial epiphyses • Epiphyses of one tibia was carefully prepared and burned. Samples were burned to remove water and organic material. Ash weight relates to the mineral content of the bone. In addition, bone samples were taken to study the histomorphometry. In some cases the bone formation was studied by injecting tetracycline (50 mg/kg i.p. 10 days before autopsy) and calcein (20 mg/kg i.p. 3 days before autopsy). The method is based on permanent binding of tetracycline into growing bone and its detection by fluorescence (Peng et al, 1994).

ovariectomized rats [2] = conditions: 3.0 mg/kg peroral daily, 4 weeks, ovariectomized rats (Sham 0.497 ± 0.103; Ovariectomized 0.099 ± 0.016)
immature female rats = experiment: 3 day uterotropic assay in immature female rats (given alone and with estradiol); format: in vivo; conditions: 3 days, immature female rats
Method: The values are given at two dose levels, low i.e. 3―5 mg/kg and high i.e. 10―50 mg/kg. Estrogenic activity can be estimated also after a 4 weeks' treatment of ovariectomized rats based on the uterine size.

ovariectomized rats [3] = experiment: Strength of femoral neck (cantilever bending test) in ovariectomized rats after 4 weeks dosing; format: in vivo; conditions: 3.0 mg/kg p.o., beginning one week after ovariectomy (Sham 86.7 ± 10.4; OVX 68.4 ± 8.5), * = p < 0.05 vs ovariectomized
Excerpt: as §1
The mechanical testing of bones was carried out by materials testing machine, constructed in-house at Oulu University (Technical Services Department of the Medical Faculty). The testing machine is based on lever arm principle. One end of a steel lever is fixed. […] Compressive force is measured by a temperature-compensated force sensor, which is attached to the stationary part of the compression stage. […]
The maximal load on the femoral neck was measured by the cantilever bending test. […]

ovariectomized rats [4] = experiment: Ash weight of tibial epiphyses in ovariectomized rats after 4 weeks dosing; format: in vivo; conditions: 3.0 mg/kg p.o., beginning one week after ovariectomy (Sham 34.0 ± 2.9; OVX 32.2 ± 2.8), * = p < 0.05 vs ovariectomized
Excerpt: as §1

[5] = read-out: Maximal Cell Kill (% fraction of dead cells), With estradiol (E2)
[6] = read-out: Maximal Cell Kill (% fraction of dead cells), Without estradiol (E2)
[7] = summary statement referring to Table 2

**Q.** CN(C)CCOc1cccc(/C(=C(/CCCl)c2ccccc2)c2ccccc2)c1 [No. 33, (Z)-{2-[3-(4-Chloro-1,2-diphenylbut-1-enyl)phenoxy]ethyl}dimethylamine] was tested. Which inhibition at 1 µM (MCF-7 cells) did it give?
**A.** Its inhibition at 1 µM is 58%.

**Q.** And the cytotoxicity at 10 µM (MCF-7 cells; [5])?
**A.** Its cytotoxicity at 10 µM is 80%.

**Q.** And the cytotoxicity at 10 µM (MCF-7 cells; [6])?
**A.** The cytotoxicity at 10 µM was 0%.

**Q.** What about the “Cytotoxic action (in words)” value (MCF-7 cells; [7]) of the same compound?
**A.** Its value is “weak”.

**Q.** And the “Effect on cholesterol (in words)” value [1]?
**A.** Its value is “decrease cholesterol”.

**Q.** Which “Cholesterol level (mmol/1) in serum” value ([1]; 3 µg/kg, 4 weeks dosing) does the source give for C[C@]12CC[C@@H]3c4ccc(O)cc4CC[C@H]3[C@@H]1CC[C@@H]2O [estradiol, reference compound] here?
**A.** The value was 4.0 ± 0.4 mmol/1.

**Q.** What does the source list for O=C(c1ccc(OCCN2CCCCC2)cc1)c1c(-c2ccc(O)cc2)sc2cc(O)ccc12 [Raloxifene, reference compound]?
**A.** Uterine size (ovariectomized rats [2]): 0.141 ± 0.021 g; Estrogen antagonism (% inhibition of estradiol) Given with estradiol (immature female rats; dose 3–5 mg/kg): 90 % inhibition of estradiol; Uterotropic effect (% of estradiol) Given without estradiol (immature female rats; dose 3–5 mg/kg): 11 % of estradiol; Estrogen antagonism (% inhibition of estradiol) Given with estradiol (immature female rats; dose 10–50 mg/kg): 92 % inhibition of estradiol; Uterotropic effect (% of estradiol) Given without estradiol (immature female rats; dose 10–50 mg/kg): 13 % of estradiol; Maximal load (N) of femoral neck (ovariectomized rats [3]): 84.2 ± 18.4* N; Ash weight (mg) of tibial epiphyses (ovariectomized rats [4]): 34.9 ± 3.5 mg

**Q.** Which results are given for CN(C)CCOc1ccc(/C(=C(/CCCl)c2ccccc2)c2ccc(Cl)cc2)cc1 [No. 3, (E)-(2-{4-[4-Chloro-1-(4-chlorophenyl)-2-phenylbut-1-enyl]phenoxy}-ethyl)dimethylamine]?
**A.** Uterine size (ovariectomized rats [2]): 0.140 ± 0.006 g; Estrogen antagonism (% inhibition of estradiol) Given with estradiol (immature female rats; dose 3–5 mg/kg): 65 % inhibition of estradiol; Uterotropic effect (% of estradiol) Given without estradiol (immature female rats; dose 3–5 mg/kg): 44 % of estradiol; Estrogen antagonism (% inhibition of estradiol) Given with estradiol (immature female rats; dose 10–50 mg/kg): 38 % inhibition of estradiol; Uterotropic effect (% of estradiol) Given without estradiol (immature female rats; dose 10–50 mg/kg): 54 % of estradiol; Maximal load (N) of femoral neck (ovariectomized rats [3]): 92.5±11.1* N; inhibition at 1 µM (MCF-7 cells): 1%; Emax (MCF-7 cells): 1%; cytotoxicity at 10 µM (MCF-7 cells; [5]): 94%; cytotoxicity at 10 µM (MCF-7 cells; [6]): 100%; Kill of MCF-7 cells (in words) (MCF-7 cells; highest investigated concentration (10 µM), Table 2): kill MCF-7 cells (human breast cancer cells) effectively; Hormonal activity (in words) (MCF-7 cells; [7]): weak hormonal activity; Estrogenic and antiestrogenic action (in words) (MCF-7 cells; summary statement referring to Tables 2, 3 and 4): weak estrogenic and no antiestrogenic action; Ash weight (mg) of tibial epiphyses (ovariectomized rats [4]): 36.0±3.4* mg; Cholesterol level (mmol/1) in serum ([1]; 3 mg/kg, 4 weeks dosing): 3.1 ± 0.4 mmol/1; Effect on ovariectomy-induced increase of serum cholesterol level (in words) ([1]; OVX rats, 4 weeks dosing): can prevent this increase even at very low dose and decrease the level below the sham operated level; Effect on cholesterol (in words) [1]: decrease cholesterol

**Q.** Which “Estrogen antagonism (% inhibition of estradiol) Given with estradiol” value (immature female rats; dose 3–5 mg/kg) does the source give for CC/C(=C(\c1ccccc1)c1ccc(OCCN(C)C)cc1)c1ccccc1 [Tamoxifen, reference compound] here?
**A.** Its value is 51 % inhibition of estradiol.

**Q.** And the “Uterotropic effect (% of estradiol) Given without estradiol” value (immature female rats; dose 3–5 mg/kg)?
**A.** Its value is 44 % of estradiol.

**Q.** What about the “Estrogen antagonism (% inhibition of estradiol) Given with estradiol” value (immature female rats; dose 10–50 mg/kg) of the same compound?
**A.** The value was 58 % inhibition of estradiol.

**Q.** And the “Uterotropic effect (% of estradiol) Given without estradiol” value (immature female rats; dose 10–50 mg/kg)?
**A.** The value was 51 % of estradiol.

**Q.** What about the inhibition at 1 µM (MCF-7 cells) of the same compound?
**A.** The inhibition at 1 µM was 43%.

**Q.** And the Emax (MCF-7 cells)?
**A.** The Emax was 31%.

**Q.** And the cytotoxicity at 10 µM (MCF-7 cells; [5])?
**A.** Its cytotoxicity at 10 µM is 100%.

**Q.** What about the cytotoxicity at 10 µM (MCF-7 cells; [6]) of the same compound?
**A.** The cytotoxicity at 10 µM was 100%.
